In the supplement of paper PMC11061612:

Key:
Test in all cases: combination Emax (second highest fraction inhibited in the dose matrix, 72 h); higher = more inhibition; extreme values may be limits of the assay
EW-1 (Ewing's Sarcoma) = system: EW-1 (Ewing's Sarcoma)
How it was run: (§1)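 Cell lines in DMEM/F12 or RPMI with 10% FBS were plated in 1536-well plates, held 24 hours at 37°C, 5% CO2, then given two-drug dose matrices for 72 hours (DMSO typically 0.2%). Viability was read by CellTiter-Glo 2.0 luminescence and scaled as inhibition from 0 (vehicle wells) to 1 (blank wells). Combination Emax is the second-highest inhibition in the matrix; Bliss excess is observed combination effect minus expected EA + EB − EA·EB, EA and EB being single-agent effects.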

[1] = system: LC-1-sq (Squamous Cell Lung Carcinoma)
How it was run: as §1

[2] = system: Mo-T (Other Blood Carcinomas)
How it was run: as §1

[3] = system: SW982 (Other Solid Carcinomas)
How it was run: as §1

CN(C)CCCOc1ccc(-c2ccc3ncc4c(c3c2)n(C2CCOCC2)c(=O)n4C)cn1 [AZD0156] + C=CCn1c(=O)c2cnc(Nc3ccc(N4CCN(C)CC4)cc3)nc2n1-c1cccc(C(C)(C)O)n1 [AZD1775] (first compound max 1 µM, partner max 1 µM)
combination Emax (EW-1 (Ewing's Sarcoma)): 0.886 | combination Emax [1]: 0.91 | combination Emax [2]: 0.402 | combination Emax [3]: 0.71

CN(C)CCCOc1ccc(-c2ccc3ncc4c(c3c2)n(C2CCOCC2)c(=O)n4C)cn1 [AZD0156] + CCN(CCO)CCCOc1ccc2c(Nc3cc(CC(=O)Nc4cccc(F)c4)[nH]n3)ncnc2c1 [AZD2811] (first compound max 1 µM, 7x7, partner max 1 µM)
combination Emax (EW-1 (Ewing's Sarcoma)): 0.301 | combination Emax [1]: 0.257 | combination Emax [2]: 0.137 | combination Emax [3]: 0.548

CN(C)CCCOc1ccc(-c2ccc3ncc4c(c3c2)n(C2CCOCC2)c(=O)n4C)cn1 [AZD0156] + C[C@@H]1COCCN1C2=NC(=NC(=C2)C3(CC3)[S@](=N)(=O)C)C4=C5C=CNC5=NC=C4 [AZD6738] (first compound max 1 µM, 7x7, partner max 10 µM)
combination Emax (EW-1 (Ewing's Sarcoma)): 0.93 | combination Emax [1]: 0.877 | combination Emax [2]: 0.481 | combination Emax [3]: 0.723

CN(C)CCCOc1ccc(-c2ccc3ncc4c(c3c2)n(C2CCOCC2)c(=O)n4C)cn1 [AZD0156] + O=C(c1cc(Cc2n[nH]c(=O)c3ccccc23)ccc1F)N1CCN(C(=O)C2CC2)CC1 [Olaparib] (first compound max 3 µM, partner max 3 µM)
combination Emax (EW-1 (Ewing's Sarcoma)): 0.684 | combination Emax [1]: 0.184 | combination Emax [2]: 0.402 | combination Emax [3]: 0.4

C=CCn1c(=O)c2cnc(Nc3ccc(N4CCN(C)CC4)cc3)nc2n1-c1cccc(C(C)(C)O)n1 [AZD1775] + CCc1c2c(nc3ccc(O)cc13)-c1cc3c(c(=O)n1C2)COC(=O)[C@]3(O)CC [SN-38] (first compound max 1 µM, partner max 0.3 µM)
combination Emax [2]: 0.817 | combination Emax [3]: 0.866

C=CCn1c(=O)c2cnc(Nc3ccc(N4CCN(C)CC4)cc3)nc2n1-c1cccc(C(C)(C)O)n1 [AZD1775] + Nc1ccn([C@@H]2O[C@H](CO)[C@@H](O)C2(F)F)c(=O)n1 [Gemcitabine] (first compound max 1 µM, partner max 0.3 µM)
combination Emax [2]: 0.766 | combination Emax [3]: 0.888

CN(CCO)CC[C@H](CSc1ccccc1)Nc1ccc(S(=O)(=O)NC(=O)c2ccc(N3CCC([C@@H](O)c4ccccc4-c4ccc(Cl)cc4)CC3)cc2)cc1S(=O)(=O)C(F)(F)F [AZD4320] + CS(=O)(=O)CCNCc1ccc(-c2ccc3ncnc(Nc4ccc(OCc5cccc(F)c5)c(Cl)c4)c3c2)o1 [Lapatinib] (first compound max 1 µM, 7x7, partner max 10 µM)
combination Emax [2]: 0.959 | combination Emax [3]: 0.968

Cc1c2c(nn1C)CSCc1cc(n(C)n1)CSc1cc(c3ccccc3c1)OCCCc1c(C(=O)O)n(C)c3c-2c(Cl)ccc13 [AZD5991] + CC(=O)O[C@H]1C(=O)[C@@]2(C)[C@H]([C@H](OC(=O)c3ccccc3)[C@]3(O)C[C@H](OC(=O)[C@H](O)[C@@H](NC(=O)c4ccccc4)c4ccccc4)C(C)=C1C3(C)C)[C@]1(OC(C)=O)CO[C@@H]1C[C@@H]2O [Paclitaxel] (first compound max 1 µM, 7x7, partner max 3 µM)
combination Emax [2]: 0.658 | combination Emax [3]: 0.953

Cc1c2c(nn1C)CSCc1cc(n(C)n1)CSc1cc(c3ccccc3c1)OCCCc1c(C(=O)O)n(C)c3c-2c(Cl)ccc13 [AZD5991] + CS(=O)(=O)CCNCc1ccc(-c2ccc3ncnc(Nc4ccc(OCc5cccc(F)c5)c(Cl)c4)c3c2)o1 [Lapatinib] (first compound max 1 µM, 7x7, partner max 10 µM)
combination Emax [2]: 0.371 | combination Emax [3]: 0.621

Cc1c2c(nn1C)CSCc1cc(n(C)n1)CSc1cc(c3ccccc3c1)OCCCc1c(C(=O)O)n(C)c3c-2c(Cl)ccc13 [AZD5991] + Nc1ccn([C@@H]2O[C@H](CO)[C@@H](O)C2(F)F)c(=O)n1 [Gemcitabine] (first compound max 1 µM, 7x7, partner max 0.3 µM)
combination Emax [2]: 0.685 | combination Emax [3]: 0.844

C[C@@H]1COCCN1c1cc(C2([S@](C)(=N)=O)CC2)nc(-c2ccnc3[nH]ccc23)n1 [AZD6738] + C1CC(C1)(C(=O)[O-])C(=O)[O-].N.N.[Pt+2] [Carboplatin] (first compound max 10 µM, 7x7, partner max 10 µM)
combination Emax [2]: 0.366 | combination Emax [3]: 0.665

C[C@@H]1COCCN1c1cc(C2([S@](C)(=N)=O)CC2)nc(-c2ccnc3[nH]ccc23)n1 [AZD6738] + Nc1ccn([C@@H]2O[C@H](CO)[C@@H](O)C2(F)F)c(=O)n1 [Gemcitabine] (first compound max 10 µM, 7x7, partner max 0.3 µM)
combination Emax [2]: 0.812 | combination Emax [3]: 0.949

C[C@@H](Nc1cc(F)cc(F)c1)c1cc(C(=O)N(C)C)cc2c(=O)cc(N3CCOCC3)oc12 [AZD8186] + C1CN(CCC1(C(=O)N[C@@H](CCO)C2=CC=C(C=C2)Cl)N)C3=NC=NC4=C3C=CN4 [AZD5363] (first compound max 10 µM, 7x7, partner max 10 µM)
combination Emax [2]: 0.347 | combination Emax [3]: 0.512

C[C@@H](Nc1cc(F)cc(F)c1)c1cc(C(=O)N(C)C)cc2c(=O)cc(N3CCOCC3)oc12 [AZD8186] + CC(=O)c1c(C)c2cnc(Nc3ccc(N4CCNCC4)cn3)nc2n(C2CCCC2)c1=O [Palbociclib] (first compound max 10 µM, 7x7, partner max 10 µM)
combination Emax [2]: 0.383 | combination Emax [3]: 0.639

C[C@@H](Oc1cc(-c2cnn(C3CCNCC3)c2)cnc1N)c1c(Cl)ccc(F)c1Cl [Crizotinib] + CC1=C(C(=CC=C1)Cl)NC(=O)C2=CN=C(S2)NC3=CC(=NC(=N3)C)N4CCN(CC4)CCO [Dasatinib] (first compound max 10 µM, 7x7, partner max 2 µM)
combination Emax [2]: 0.383 | combination Emax [3]: 1

C[C@@H](Oc1cc(-c2cnn(C3CCNCC3)c2)cnc1N)c1c(Cl)ccc(F)c1Cl [Crizotinib] + Cn1cnc2c(F)c(Nc3ccc(Br)cc3Cl)c(C(=O)NOCCO)cc21 [Selumetinib] (first compound max 10 µM, 7x7, partner max 10 µM)
combination Emax [2]: 0.466 | combination Emax [3]: 0.973

CS(=O)(=O)CCNCc1ccc(-c2ccc3ncnc(Nc4ccc(OCc5cccc(F)c5)c(Cl)c4)c3c2)o1 [Lapatinib] + Cn1cnc2c(F)c(Nc3ccc(Br)cc3Cl)c(C(=O)NOCCO)cc21 [Selumetinib] (first compound max 10 µM, 7x7, partner max 10 µM)
combination Emax [2]: 0.477 | combination Emax [3]: 0.66

CS(=O)(=O)CCNCc1ccc(-c2ccc3ncnc(Nc4ccc(OCc5cccc(F)c5)c(Cl)c4)c3c2)o1 [Lapatinib] + NC1(c2ccc(-c3nc4ccn5c(=O)[nH]nc5c4cc3-c3ccccc3)cc2)CCC1 [MK-2206] (first compound max 10 µM, 7x7, partner max 10 µM)
combination Emax [2]: 0.948 | combination Emax [3]: 0.894

O=C(c1cc(Cc2n[nH]c(=O)c3ccccc23)ccc1F)N1CCN(C(=O)C2CC2)CC1 [Olaparib] + CC1(C)CCC(CN2CCN(c3ccc(C(=O)NS(=O)(=O)c4ccc(NCC5CCOCC5)c([N+](=O)[O-])c4)c(Oc4cnc5[nH]ccc5c4)c3)CC2)=C(c2ccc(Cl)cc2)C1 [Venetoclax] (first compound max 10 µM, 7x7, partner max 1 µM)
combination Emax [2]: 0.186 | combination Emax [3]: 0.432

O=C(c1cc(Cc2n[nH]c(=O)c3ccccc23)ccc1F)N1CCN(C(=O)C2CC2)CC1 [Olaparib] + CN(CC[C@H](CSC1=CC=CC=C1)NC2=C(C=C(C=C2)S(=O)(=O)NC(=O)C3=CC=C(C=C3)N4CCC(CC4)[C@H](C5=CC=CC=C5C6=CC=C(C=C6)Cl)O)S(=O)(=O)C(F)(F)F)CCO [AZD4320] (first compound max 10 µM, 7x7, partner max 1 µM)
combination Emax [2]: 0.844 | combination Emax [3]: 0.709

O=C(c1cc(Cc2n[nH]c(=O)c3ccccc23)ccc1F)N1CCN(C(=O)C2CC2)CC1 [Olaparib] + COc1nnc2ccc(N3CCC(c4ccc(OCCN5CCN(C)C(=O)[C@H]5C)cc4)CC3)nn12 [AZD5153] (first compound max 10 µM, 7x7, partner max 1 µM)
combination Emax [2]: 0.59 | combination Emax [3]: 0.787

O=C(c1cc(Cc2n[nH]c(=O)c3ccccc23)ccc1F)N1CCN(C(=O)C2CC2)CC1 [Olaparib] + Cc1c2c(nn1C)CSCc1cc(n(C)n1)CSc1cc(c3ccccc3c1)OCCCc1c(C(=O)O)n(C)c3c-2c(Cl)ccc13 [AZD5991] (first compound max 10 µM, 7x7, partner max 1 µM)
combination Emax [2]: 0.0919 | combination Emax [3]: 0.491

Cc1nc(-c2cn3c(n2)-c2ccc(-c4cnn(C(C)(C)C(N)=O)c4)cc2OCC3)n(C(C)C)n1 [Taselisib] + O=C(Nc1ccc2[nH]nc(-c3ccncc3)c2c1)[C@@H]1CCN(CC(=O)N2CCN(c3ccc(-c4ncccn4)cc3)CC2)C1 [SCH772984] (first compound max 10 µM, 7x7, partner max 5 µM)
combination Emax [2]: 0.477 | combination Emax [3]: 0.908

CC1(C)CCC(CN2CCN(c3ccc(C(=O)NS(=O)(=O)c4ccc(NCC5CCOCC5)c([N+](=O)[O-])c4)c(Oc4cnc5[nH]ccc5c4)c3)CC2)=C(c2ccc(Cl)cc2)C1 [Venetoclax] + CS(=O)(=O)CCNCc1ccc(-c2ccc3ncnc(Nc4ccc(OCc5cccc(F)c5)c(Cl)c4)c3c2)o1 [Lapatinib] (first compound max 1 µM, 7x7, partner max 10 µM)
combination Emax [2]: 0.33 | combination Emax [3]: 0.437
